{
  "source": "paper PMC5416915",
  "about": "“Elucidation of salicylate attachment in celesticetin biosynthesis opens the door to create a library of more efficient hybrid lincosamide antibiotics” (Chemical Science, 2017)",
  "format_in_all_cases": "biochemical",
  "key": {"CcbF [1]": {"target": "T1, CcbF (Streptomyces caelestis, UniProt E9JES7)", "T1 construct": "recombinant celesticetin biosynthetic protein; construct not described in main text", "T1 sequence (E9JES7 1-416)": "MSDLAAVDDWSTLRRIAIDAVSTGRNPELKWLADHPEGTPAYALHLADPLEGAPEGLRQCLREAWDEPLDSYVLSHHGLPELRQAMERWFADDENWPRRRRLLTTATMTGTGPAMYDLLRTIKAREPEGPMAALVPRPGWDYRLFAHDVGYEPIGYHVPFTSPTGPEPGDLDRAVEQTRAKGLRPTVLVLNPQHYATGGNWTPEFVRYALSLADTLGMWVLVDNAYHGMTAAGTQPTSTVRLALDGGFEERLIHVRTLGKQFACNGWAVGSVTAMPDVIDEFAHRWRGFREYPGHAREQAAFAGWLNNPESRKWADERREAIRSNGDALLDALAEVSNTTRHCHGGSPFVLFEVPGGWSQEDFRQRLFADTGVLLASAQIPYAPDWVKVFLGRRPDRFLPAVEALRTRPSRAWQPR", "experiment": "LC-MS, in vitro cascade with Ccb5 and Ccb4", "conditions": "PLP-dependent; coupled with Ccb5 and Ccb4 to intermediate 45"}, "CcbF [2]": {"target": "T1, CcbF", "experiment": "LC-MS, in vitro cascade with Ccb5 with or without Ccb4", "conditions": "PLP-dependent; coupled with Ccb5"}, "Ccb2": {"target": "T2, Ccb2 (Streptomyces caelestis, UniProt E9JET8)", "T2 construct": "recombinant, heterologously produced in and purified from E. coli; 548 residues", "T2 sequence (E9JET8 1-548)": "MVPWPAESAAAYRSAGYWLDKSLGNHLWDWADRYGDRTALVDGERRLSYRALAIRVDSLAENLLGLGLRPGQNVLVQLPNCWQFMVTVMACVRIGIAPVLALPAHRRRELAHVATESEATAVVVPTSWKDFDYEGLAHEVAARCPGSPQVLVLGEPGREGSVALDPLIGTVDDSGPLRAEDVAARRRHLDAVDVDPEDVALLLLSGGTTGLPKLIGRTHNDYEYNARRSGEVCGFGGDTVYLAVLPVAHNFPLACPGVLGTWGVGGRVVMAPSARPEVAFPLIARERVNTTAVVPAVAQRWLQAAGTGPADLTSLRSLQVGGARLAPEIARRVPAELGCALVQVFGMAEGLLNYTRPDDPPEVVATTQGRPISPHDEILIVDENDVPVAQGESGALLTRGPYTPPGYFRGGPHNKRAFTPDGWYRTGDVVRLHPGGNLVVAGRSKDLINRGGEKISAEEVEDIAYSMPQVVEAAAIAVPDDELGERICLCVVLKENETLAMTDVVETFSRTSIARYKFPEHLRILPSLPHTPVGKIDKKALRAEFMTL", "experiment": "LC-MS detection of acyl-AMP conjugate", "conditions": "ATP"}},
  "data": [
    {"compound": "CCC[C@@H]1C[C@@H](C(=O)N[C@@H]([C@H]2O[C@H](SC[C@H](N)C(=O)O)[C@H](O)[C@@H](O)[C@H]2O)[C@@H](C)O)N(C)C1", "note": "[2a, lincomycin intermediate 2a]", "values": [
      {"measurement": "LC-MS, in vitro cascade with Ccb5 and Ccb4", "setting": "CcbF [1]", "value": "in vitro processing of lincomycin intermediate 2a by the celesticetin biosynthetic proteins CcbF, Ccb5, and Ccb4"}
    ]},
    {"compound": "CCC[C@H]1CN[C@H](C(=O)N[C@@H]([C@H]2O[C@H](SC[C@H](N)C(=O)O)[C@H](O)[C@@H](O)[C@H]2O)[C@@H](C)O)C1", "note": "[1a, lincomycin intermediate 1a]", "values": [
      {"measurement": "LC-MS, in vitro cascade with Ccb5 with or without Ccb4", "setting": "CcbF [2]", "value": "Lincomycin intermediates 1a and 2a processed by celesticetin biosynthetic proteins"}
    ]},
    {"compound": "O=C(O)c1ccccc1", "note": "[compound 6, benzoic acid]", "values": [
      {"measurement": "LC-MS detection of acyl-AMP conjugate", "setting": "Ccb2", "value": "We detected products"}
    ]}
  ]
}
